According to article PMC6721227, “Insight into the PTP1B Inhibitory Activity of Arylbenzofurans: An In Vitro and In Silico Study” (Molecules, 2019):
“Also recorded” adds a separate entry of the source.

How the values were obtained:
[1] = test system: PTP1B; set-up: method as in PMID 15258570; conditions: allosteric inhibitor of PTP1B; cited from earlier work
[2] = molecular target: T1, Protein tyrosine phosphatase 1B (PTP1B, human recombinant) (Homo sapiens, UniProt P18031); assay: PTP1B inhibitory assay (inhibition of pNPP hydrolysis catalyzed by PTP1B); type: biochemical
T1 construct: purchased Biomol International LP (Plymouth Meeting, PA, USA)
T1 sequence (P18031 1-435): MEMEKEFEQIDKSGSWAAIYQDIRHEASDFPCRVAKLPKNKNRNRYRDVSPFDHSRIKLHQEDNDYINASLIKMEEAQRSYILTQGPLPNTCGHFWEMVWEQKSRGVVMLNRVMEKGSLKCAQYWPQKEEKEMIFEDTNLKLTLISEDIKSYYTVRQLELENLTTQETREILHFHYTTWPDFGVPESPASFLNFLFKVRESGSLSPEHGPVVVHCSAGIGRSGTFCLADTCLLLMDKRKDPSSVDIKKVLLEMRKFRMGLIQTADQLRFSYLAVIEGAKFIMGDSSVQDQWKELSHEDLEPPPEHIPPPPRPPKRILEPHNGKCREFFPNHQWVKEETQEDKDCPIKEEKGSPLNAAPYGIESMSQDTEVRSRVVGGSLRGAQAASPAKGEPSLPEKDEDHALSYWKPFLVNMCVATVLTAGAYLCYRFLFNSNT
From the text: (§1) Ethylenediaminetetraacetic acid, p-nitrophenyl phosphate (pNPP), and dimethylsulfoxide were purchased from Sigma-Aldrich Co. (St. Louis, MO, USA). Protein tyrosine phosphatase 1B (PTP1B, human recombinant) and dithiothreitol (DTT) were purchased from Biomol® International LP (Plymouth Meeting, PA, USA) and Bio-Rad Laboratories (Hercules, CA, USA), respectively. All chemicals and solvents used in the isolation and enzyme assays were of reagent grade and were purchased from commercial sources. TLC were performed on a precoated Merck Kiesel gel 60 F254 plates (20 × 20 cm, 0.25 mm) and RP-18 F254S plates (5 × 10 cm) (Merck, Darmstadt, Germany).
Inhibition of pNPP hydrolysis catalyzed by PTP1B was carried out by the method as described but with slight modification.

[3] = molecular target: T1, Protein tyrosine phosphatase 1B (PTP1B, human recombinant); assay: Enzyme kinetic analysis (Lineweaver-Burk and Dixon plots); type: biochemical; conditions: for Ki: determined by Dixon plot; for Inhibition Type: determined by Lineweaver-Burk plot
From the text: Here, we employed Lineweaver-Burk and Dixon plots to determine the inhibition type and inhibition constant (Ki value) for each compound (Figure 2, Table 1).
as §1
The kinetic parameters were determined using Lineweaver-Burk double-reciprocal plots and the Dixon plot method at increasing substrate and compound concentrations. All measurements were measured in triplicate, and Sigma Plot 12.0 (SPCC Inc., Chicago, IL, USA) was used to calculate the experimental parameters.

| SMILES | IC50 [1] [µM] | IC50 [2] [µM] | Ki [3] [µM] | Inhibition Type [3] | times more potent than compound A ([2]; MD2 vs compound A, PTP1B inhibition) [times] | reduction of activity (SA vs. MD) ([2]; replacement of C3′-OH with -OCH3, SA vs. MD) [times] |
| --- | --- | --- | --- | --- | --- | --- |
| CC(C)=CCC/C(C)=C/CC/C(C)=C\Cc1c(O)cc(O)c(CC=C(C)C)c1-c1cc2ccc(O)cc2o1 [MB, morusalfuran B] |  | 12 ± 0.75 | 2.84 | mixed-type inhibition; also recorded: mixed type inhibitor |  |  |
| CC(C)=CCCC1(C)C=Cc2c(ccc3cc(-c4cc(O)cc(O)c4CC=C(C)C)oc23)O1 (centres unmarked) [MD2, mulberrofuran D2] |  | 3.11 ± 0.1 | 2.63 | non-competitive inhibition; also recorded: non-competitive inhibitor; also recorded: Noncompetitive | 7 |  |
| CC(C)=CCC/C(C)=C/Cc1c(O)ccc2cc(-c3cc(O)cc(O)c3CC=C(C)C)oc12 [MD, mulberrofuran D] |  | 11.6 ± 0.19 | 4.79 | mixed-type inhibition; also recorded: mixed type inhibitor |  |  |
| C[C@@]12C=C(c3c(O)cc(-c4cc5ccc(O)cc5o4)cc3O)C[C@@H](C1)c1ccc(O)cc1O2 [MH, mulberrofuran H] |  | 53.5 ± 12.5 |  |  |  |  |
| COc1cc(O)cc(-c2cc3ccc(O)c(C/C=C(\C)CCC=C(C)C)c3o2)c1CC=C(C)C [SA, sanggenofuran A] |  | 31.9 ± 2.98 |  |  |  | > 3 |
